Key:
Assay in all cases: drug sensitivity score (DSS3, normalised partial AUC of % inhibition dose-response) (DSS (score)); higher = more sensitive (stronger inhibition of viability); extreme values may be limits of the assay
Settings in all cases: 72 h; library: FO5A; assay format: 2D, 384-well, CellTiter-Glo
FMOC03 = system: FMOC03 (patient-derived mucinous ovarian cancer cells)
Summary of the method: (§1)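 On 384-well flat clear-bottom plates carrying compounds at five concentrations across a 10,000-fold range, patient-derived ovarian cancer cells below passage 10 were incubated for 72 h at 37 °C with 5% CO2. CellTiter-Glo readout of viability was processed in Breeze. A higher drug sensitivity score, defined as the partial area under the percent-inhibition dose-response curve divided by the log of the upper asymptote, means greater sensitivity.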

FMOC25_2 = system: FMOC25_2 (patient-derived low-grade serous ovarian cancer cells)
Summary of the method: as §1

FMOC02_3 = system: FMOC02_3 (patient-derived low-grade serous ovarian cancer cells)
Summary of the method: as §1

FMOC22 = system: FMOC22 (patient-derived mucinous ovarian cancer cells)
Summary of the method: as §1

FMOC24 = system: FMOC24 (patient-derived high-grade serous ovarian cancer cells)
Summary of the method: as §1

FMOC14 = system: FMOC14 (patient-derived high-grade serous ovarian cancer cells)
Summary of the method: as §1

FMOC02_2 = system: FMOC02_2 (patient-derived low-grade serous ovarian cancer cells)
Summary of the method: as §1

FMOC06 = system: FMOC06 (patient-derived mucinous ovarian cancer cells)
Summary of the method: as §1

FMOC09 = system: FMOC09 (patient-derived high-grade serous ovarian cancer cells)
Summary of the method: as §1

| SMILES | drug sensitivity score (FMOC03) | drug sensitivity score (FMOC25_2) | drug sensitivity score (FMOC02_3) | drug sensitivity score (FMOC22) | drug sensitivity score (FMOC24) | drug sensitivity score (FMOC14) | drug sensitivity score (FMOC02_2) | drug sensitivity score (FMOC06) | drug sensitivity score (FMOC09) |
| --- | --- | --- | --- | --- | --- | --- | --- | --- | --- |
| COc1cccc2c1C(=O)c1c(O)c3c(c(O)c1C2=O)C[C@@](O)(C(=O)CO)C[C@@H]3O[C@H]1C[C@H](N)[C@@H](O)[C@H](C)O1 [Epirubicin] | 4.3 | 8.2 | 7 | 5.7 | 4.8 | 3.8 | 3.9 | 4.2 | 5.2 |
| NC(=O)/C(=C/n1cnc(-c2cc(C(F)(F)F)cc(C(F)(F)F)c2)n1)c1cncnc1 [Eltanexor] | 12.5 | 23 | 24.5 | 16.5 | 23.7 | 12.4 | 16.2 | 23 | 13.3 |
| COc1ccc2[nH]cc(/C=C3\C(=O)Nc4ccc(NC(=O)CCN5CCCCC5)cc43)c2c1 | 7.6 | 8.6 | 10.8 | 6.1 | 12.7 | 5.1 | 12.7 | 6.4 | 5.4 |
| CC1(C)CC[C@]2(NC(=O)C(C)(F)F)CC[C@]3(C)[C@H](C(=O)C=C4[C@@]5(C)C=C(C#N)C(=O)C(C)(C)[C@@H]5CC[C@]43C)[C@@H]2C1 [Omaveloxolone] | 18.7 | 13.9 | 10 | 15.9 | 9.7 | 11.6 | 9.3 | 15.8 | 14 |
| CCN(CC)CCNC(=O)c1c(C)[nH]c(/C=C2\C(=O)Nc3ccc(-c4csc(-c5ccccc5)n4)cc32)c1C [Amcasertib] | 1.2 | 0.1 | 0 | 2.7 | 8.9 | 0.1 | 1.6 | 0.5 | 0.3 |
| C[C@H]1O[C@@H](O[C@H]2[C@@H](O)C[C@H](O[C@H]3[C@@H](O)C[C@H](O[C@H]4CC[C@@]5(C)[C@H](CC[C@@H]6[C@@H]5C[C@@H](O)[C@]5(C)[C@@H](C7=CC(=O)OC7)CC[C@]65O)C4)O[C@@H]3C)O[C@@H]2C)C[C@H](O)[C@@H]1O [Digoxin] | 9.6 | 18.3 | 14.4 | 9.7 | 17.1 | 10.3 | 11.1 | 10.7 | 14.3 |
| CCN1C(=O)CNc2ncc(-c3ccc(-c4nc[nH]n4)nc3C)nc21 [CC-115] | 8 | 16 | 9.5 | 6.3 | 6.2 | 8.9 | 14.2 | 10.9 | 6.7 |
| CCNC(=O)C[C@@H]1N=C(c2ccc(Cl)cc2)c2cc(OC)ccc2-n2c(C)nnc21 [Molibresib] | 3.4 | 5.6 | 10.2 | 3.1 | 5 | 1.7 | 6.9 | 3.6 | 2.1 |
| O=C1CCc2c(Oc3ccc4c(c3)[C@@H]3[C@H](O4)[C@H]3c3nc4cc(C(F)(F)F)ccc4[nH]3)ccnc2N1 [BGB-283] | 4.5 | 5.8 | 6.8 | 3.7 | 0.9 | 1 | 7.4 | 4.8 | 4.9 |
| CC(=O)c1cnc2ccc(-c3cc(Cl)c(O)c(Cl)c3)nc2c1N[C@H]1CC[C@H](CN(C)C)CC1 [OTS167] | 7.7 | 15.1 | 12.6 | 7.2 | 12.8 | 13 | 13.5 | 6.3 | 13.1 |
| CC[C@@H](C(=O)[C@@H](C)[C@@H](O)[C@H](C)[C@@H]1O[C@@H]([C@@H](CC)C(=O)O)CC[C@@H]1C)[C@H]1O[C@]2(C=C[C@@H](O)[C@]3(CC[C@@](C)([C@H]4CC[C@](O)(CC)[C@H](C)O4)O3)O2)[C@H](C)C[C@@H]1C [Salinomycin] | 12.5 | 16.5 | 1.1 | 10.6 | 26.1 | 23.3 | 15.4 | 16.6 | 16.4 |
| CC(=O)c1cc2c(o1)C(=O)c1ccccc1C2=O [Napabucasin] | 18.2 | 15 | 17.9 | 18.5 | 17.5 | 18.2 | 18.3 | 14.7 | 19.2 |
| Cc1noc2c1-c1ccccc1C(c1ccc(Cl)cc1)=N[C@H]2CC(N)=O [CPI-0610] | 4.3 | 4 | 12.5 | 3.3 | 6.4 | 1.5 | 7.8 | 0.6 | 4.3 |
| CN[C@@H](C)C(=O)N[C@H](C(=O)N1CCC[C@H]1c1nc(C(=O)c2ccc(F)cc2)cs1)C1CCCCC1 [NVP-LCL161] | 3.9 | 9.8 | 1.9 | 0.6 | 32.1 | 7.1 | 1.7 | 10.9 | 0 |
| C=CCn1c(=O)c2cnc(Nc3ccc(N4CCN(C)CC4)cc3)nc2n1-c1cccc(C(C)(C)O)n1 [AZD1775] | 6.1 | 15.2 | 17.5 | 6.9 | 8.15 | 14.6 | 10.8 | 8.5 | 7.9 |
| Nc1cc(F)ccc1NC(=O)c1ccc(CNC(=O)/C=C/c2cccnc2)cc1 [Tucidinostat] | 7.7 | 4.3 | 5.5 | 4.4 | 9 | 7.4 | 6.2 | 8.1 | 0.8 |
| Cc1sc2c(c1C)C(c1ccc(Cl)cc1)=N[C@@H](CC(=O)Nc1ccc(O)cc1)c1nnc(C)n1-2 [Birabresib] | 5.5 | 8.5 | 18.5 | 6.7 | 7.65 | 1.1 | 13.5 | 5.1 | 3.6 |
| Nc1nc2cc(-c3ccc4ncc(C(=O)N5CCOCC5)n4c3)ccc2o1 [Serabelisib] | 3 | 6.7 | 7.2 | 2.1 | 0 | 0.1 | 6.6 | 3.5 | 1.3 |

| SMILES | drug sensitivity score (FMOC03) | drug sensitivity score (FMOC25_2) | drug sensitivity score (FMOC02_3) | drug sensitivity score (FMOC22) | drug sensitivity score (FMOC24) | drug sensitivity score (FMOC14) | drug sensitivity score (FMOC02_2) | drug sensitivity score (FMOC06) | drug sensitivity score (FMOC09) |
| --- | --- | --- | --- | --- | --- | --- | --- | --- | --- |
| CC(C)n1nc(-c2ccc3oc(N)nc3c2)c2c(N)ncnc21 [Sapanisertib] | 13.7 | 18.1 | 20.3 | 11.7 | 7.7 | 9.5 | 18.5 | 12.9 | 8.7 |
| Cn1nccc1Nc1nccc(-c2ccn([C@H](CO)c3ccc(Cl)c(F)c3)c(=O)c2)n1 [Ravoxertinib] | 4.6 | 6.3 | 8.3 | 3.9 | 5.5 | 0 | 7.1 | 8.7 | 1.9 |
| Cc1c(-c2ccc(N3CCc4cccc(C(=O)Nc5nc6ccccc6s5)c4C3)nc2C(=O)O)cnn1CC12CC3CC(CC(C3)C1)C2 | 12.5 | 24 | 26.7 | 5.7 | 23 | 8.8 | 14.5 | 16.8 | 3.1 |
| CN(C)CC#Cc1ccc(OCCCc2sc(N3CCc4cccc(C(=O)Nc5nc6ccccc6s5)c4C3)nc2C(=O)O)c(F)c1 | 20.7 | 33.4 | 34 | 13.5 | 36.8 | 21.3 | 27.6 | 25.5 | 9.7 |
| Cn1c(Nc2ccc(C(F)(F)F)cc2)nc2cc(Oc3ccnc(-c4ncc(C(F)(F)F)[nH]4)c3)ccc21 [NVP-RAF265] | 2 | 6.6 | 12.7 | 1.6 | 2 | 1.6 | 8 | 0.8 | 0 |
| CCS(=O)(=O)Nc1ccc(Oc2ccc(F)cc2F)c(-c2cn(C)c(=O)c3[nH]ccc23)c1 [Mivebresib] | 13.9 | 16.4 | 30.3 | 11.7 | 17.6 | 11.7 | 20.3 | 16.6 | 10.9 |
| CCCCCCCCCCCCCCCCOP(=O)([O-])OCC[N+](C)(C)C [Miltefosine] | 5.6 | 5.1 | 6.9 | 10 | 9.8 | 8.7 | 5.5 | 9.1 | 8.4 |
| COc1cc2c(Nc3ccc(Cl)c(Cl)c3F)ncnc2cc1OC[C@@H]1C[C@@H]2CN(C)C[C@@H]2C1 [Tesevatinib] | 18.9 | 18.5 | 21 | 2 | 2.4 | 6.5 | 20.6 | 4.4 | 16.3 |
| C[C@@H]1COCCN1c1cc(C2([S@](C)(=N)=O)CC2)nc(-c2cc[nH]c3nccc2-3)n1 [AZD6738] | 5 | 12.5 | 11.1 | 7.4 | 8 | 10.7 | 7.8 | 6.9 | 7.7 |
| CN1CCN(C2CCC(n3cc(-c4ccc(Oc5ccccc5)cc4)c4c(N)ncnc43)CC2)CC1 (stereo not given) | 9.1 | 9.9 | 20 | 5.5 | 9.1 | 7.3 | 19.8 | 8.3 | 19.1 |
| CO[C@@H](C)Cn1c(=O)n(C)c2cnc3ccc(-c4cncc(C(C)(C)O)c4)cc3c21 | 9.2 | 15.7 | 17 | 9.1 | 7.6 | 8.3 | 15.3 | 11 | 7.4 |
| CC1(C)OCCn2c1nc1c(N3CCOCC3)nc(-c3cnc(N)nc3)nc12 [GDC-0084] | 10.5 | 16.2 | 18.5 | 7.4 | 7.5 | 9.2 | 18.1 | 10.9 | 9.6 |
| Cc1[nH]nc(C(F)(F)F)c1Cc1sc2c(c1C(=O)N1C[C@](C)(O)CO1)c(=O)n(C)c(=O)n2C(C)C [AZD3965] | 0 | 0 | 0.8 | 0 | 1.5 | 0 | 0 | 0 | 0 |
| Cc1sc2c(c1C)C(c1ccc(Cl)cc1)=N[C@@H](CC(=O)NCCCCNC(=O)COc1cccc3c1C(=O)N(C1CCC(=O)NC1=O)C3=O)c1nnc(C)n1-2 (stereo not given in full) [dBET1] | 4.5 | 0.3 | 8.6 | 3.8 | 0.2 | 8.9 | 8.8 | 12.9 | 4.5 |
| COc1cc2c(cc1OC(C)C)[C@H](c1ccc(Cl)cc1)N(c1ccc(N(C)C[C@H]3CC[C@H](N4CCN(C)C(=O)C4)CC3)cc1)C(=O)C2 [NVP-CGM097] | 5.9 | 13 | 18 | 6.9 | 8.6 | 6.3 | 12.2 | 5.5 | 5.9 |
| Cc1sc2c(c1C)C(c1ccc(Cl)cc1)=N[C@@H](CC(=O)Nc1ccc(OCCOCCOCCOCCNc3cccc4c3C(=O)N(C3CCC(=O)NC3=O)C4=O)cc1)c1nnc(C)n1-2 (stereo not given in full) [ARV-825] | 4 | 17.1 | 13 | 3.6 | 6 | 11.4 | 7.1 | 14.9 | 8.3 |
| CCNCCS(=O)(=O)NC[C@@]1(c2ccccc2)SC(NC(=O)C(C)(C)C)=NN1C(=O)C(C)(C)C [Litronesib] | 7.9 | 13.5 | 11.6 | 9.2 | 0 | 0 | 4.9 | 0.7 | 6.8 |

— the supplement of paper PMC9938120
